In US8445407B2, “Herbicidal tetrahydrophthalimides” (BASF SE, priority 2009, dated 2013):

Columns and labels:
[1] = tested on: SETFA; assay: greenhouse post-emergence herbicidal activity; assay type: in vivo, Setaria faberi; conditions: scale 0 to 100
Text: (§1) The culture containers used were plastic flowerpots containing loamy sand with approximately 3.0% of humus as the substrate. The seeds of the test plants were sown separately for each species.
(§2) For the post-emergence treatment, the test plants were first grown to a height of 3 to 15 cm, depending on the plant habit, and only then treated with the active ingredients which had been suspended or emulsified in water. For this purpose, the test plants were either sown directly and grown in the same containers, or they were first grown separately as seedlings and transplanted into the test containers a few days prior to treatment.
(§3) Depending on the species, the plants were kept at 10-25° C. or 20-35° C. The test period extended over 2 to 4 weeks. During this time, the plants were tended, and their response to the individual treatments was evaluated.
(§4) Evaluation was carried out using a scale from 0 to 100. 100 means no emergence of the plants, or complete destruction of at least the aerial moieties, and 0 means no damage, or normal course of growth. A good herbicidal activity is given at values of at least 70 and a very good herbicidal activity is given at values of at least 85.

[2] = tested on: SETVI; assay: greenhouse post-emergence herbicidal activity; assay type: in vivo, Setaria viridis; conditions: scale 0 to 100
Text: as §1, §2, §3, §4

[3] = tested on: PANDI; assay: greenhouse pre-emergence herbicidal activity; assay type: in vivo, Panicum dichotomiflorun; conditions: scale 0 to 100
Text: as §1
(§5) For the pre-emergence treatment, the active ingredients, which had been suspended or emulsified in water, were applied directly after sowing by means of finely distributing nozzles. The containers were irrigated gently to promote germination and growth and subsequently covered with transparent plastic hoods until the plants had rooted. This cover caused uniform germination of the test plants, unless this has been impaired by the active ingredients.
as §3, §4

[4] = tested on: ABUTH; assay: greenhouse pre-emergence herbicidal activity; assay type: in vivo, Abutilon theophrasti; conditions: scale 0 to 100
Text: as §1, §5, §3, §4

[5] = tested on: ECHCG; assay: greenhouse post-emergence herbicidal activity; assay type: in vivo, Echinocloa crus-galli; conditions: scale 0 to 100
Text: as §1, §2, §3, §4

[6] = tested on: STEME; assay: greenhouse pre-emergence herbicidal activity; assay type: in vivo, Stellaria media; conditions: scale 0 to 100
Text: as §1, §5, §3, §4

[7] = tested on: DIGSA; assay: greenhouse post-emergence herbicidal activity; assay type: in vivo, Digitaria sanguinales; conditions: scale 0 to 100
Text: as §1, §2, §3, §4

[8] = tested on: BRAPL; assay: greenhouse post-emergence herbicidal activity; assay type: in vivo, Brachiaria plantaginea; conditions: scale 0 to 100
Text: as §1, §2, §3, §4

[9] = tested on: SETVI; assay: greenhouse pre-emergence herbicidal activity; assay type: in vivo, Setaria viridis; conditions: scale 0 to 100
Text: as §1, §5, §3, §4

[10] = tested on: LAMAM; assay: greenhouse pre-emergence herbicidal activity; assay type: in vivo, Lamium amplexicaule; conditions: scale 0 to 100
Text: as §1, §5, §3, §4

[11] = tested on: Erigeron canadensis; assay: greenhouse pre-emergence herbicidal activity; assay type: in vivo; conditions: 6.25 g/ha, pre-emergence method
Text: as §1, §5, §3, §4

[12] = tested on: Amaranthus retroflexus; assay: greenhouse pre-emergence herbicidal activity; assay type: in vivo; conditions: 6.25 g/ha, pre-emergence method
Text: as §1, §5, §3, §4

[13] = tested on: Chenopodium album; assay: greenhouse post-emergence herbicidal activity; assay type: in vivo; conditions: 6.25 g/ha, post-emergence method
Text: as §1, §2, §3, §4

[14] = tested on: Pharbitis purpurea; assay: greenhouse post-emergence herbicidal activity; assay type: in vivo; conditions: 6.25 g/ha, post-emergence method
Text: as §1, §2, §3, §4

[15] = tested on: Abutilon theophrasti; assay: greenhouse post-emergence herbicidal activity; assay type: in vivo; conditions: 6.25 g/ha, post-emergence method
Text: as §1, §2, §3, §4

[16] = tested on: Ambrosia elatior; assay: greenhouse post-emergence herbicidal activity; assay type: in vivo; conditions: 6.25 g/ha, post-emergence method
Text: as §1, §2, §3, §4

CC(C)N(C)S(=O)(=O)NC(=O)c1cc(-n2c(=O)cc(C(F)(F)F)n(C)c2=O)c(F)cc1Cl [B.76, saflufenacil, reference compound]
herbicidal activity against SETFA found ([1]; B.76 12.5 g/ha a.s.): 30
herbicidal activity against SETVI found ([2]; B.76 12.5 g/ha a.s.): 40
herbicidal activity against PANDI found ([3]; B.76 6.25 g/ha a.s.): 55
herbicidal activity against ABUTH found ([4]; B.76 6.25 g/ha a.s.): 75

CC(C)N.O=C(O)CNCP(=O)(O)O [B.97, glyphosate-isopropylammonium, reference compound]
herbicidal activity against ECHCG found ([5]; B.97 135 g/ha a.s.): 85

CCC(CC)Nc1c([N+](=O)[O-])cc(C)c(C)c1[N+](=O)[O-] [B.102, pendimethalin, reference compound]
herbicidal activity against STEME found ([6]; B.102 400 g/ha a.s.): 75

Cc1cnc(C2=NC(=O)C(C)(C(C)C)N2)c(C(=O)O)c1 (stereo not drawn) [B.30, imazapic, reference compound]
herbicidal activity against DIGSA found ([7]; B.30 10 g/ha a.s.): 85
herbicidal activity against BRAPL found ([8]; B.30 10 g/ha a.s.): 70

COC[C@H](C)N(C(=O)CCl)c1c(C)csc1C [B.107, dimethenamid-P, reference compound]
herbicidal activity against SETVI found ([9]; B.107 15 g/ha a.s.): 70
herbicidal activity against PANDI found ([3]; B.107 15 g/ha a.s.): 95

Cn1nc(C(F)(F)F)c(CS(=O)(=O)C2=NOC(C)(C)C2)c1OC(F)F [B.117, pyroxasulfone, reference compound]
herbicidal activity against LAMAM found ([10]; B.117 6.25 g/ha a.s.): 35
herbicidal activity against STEME found ([6]; B.117 6.25 g/ha a.s.): 60

C#CCN1C(=O)C(F)(F)Oc2cc(F)c(N3C(=O)C4=C(CCCC4)C3=O)cc21 [Ia18, 2-(2,2,7-Trifluoro-3-oxo-4-prop-2-ynyl-3,4-dihydro-2H-benzo[1,4]oxazin-6-yl)-4,5,6,7-tetrahydro-isoindole-1,3-dione]
herbicidal activity against Erigeron canadensis [11]: very good herbicidal activity (a very good herbicidal activity is given at values of at least 85)
herbicidal activity against Amaranthus retroflexus [12]: very good herbicidal activity (a very good herbicidal activity is given at values of at least 85)
herbicidal activity against SETFA found ([1]; Ia18 6.25 g/ha a.s.): 70
herbicidal activity against DIGSA found ([7]; Ia18 6.25 g/ha a.s.): 20
herbicidal activity against LAMAM found ([10]; Ia18 12.5 g/ha a.s.): 80
herbicidal activity against SETVI found ([9]; Ia18 25 g/ha a.s.): 90
herbicidal activity against ECHCG found ([5]; Ia18 6.25 g/ha a.s.): 30
herbicidal activity against Chenopodium album [13]: very good herbicidal activity (a very good herbicidal activity is given at values of at least 85)
herbicidal activity against Pharbitis purpurea [14]: very good herbicidal activity (a very good herbicidal activity is given at values of at least 85)
herbicidal activity against Abutilon theophrasti [15]: very good herbicidal activity (a very good herbicidal activity is given at values of at least 85)
herbicidal activity against Ambrosia elatior [16]: very good herbicidal activity (a very good herbicidal activity is given at values of at least 85)
herbicidal activity against SETVI found ([2]; Ia18 6.25 g/ha a.s.): 55
herbicidal activity against PANDI found ([3]; Ia18 12.5 g/ha a.s.): 70
herbicidal activity against PANDI found ([3]; Ia18 25 g/ha a.s.): 95
herbicidal activity against BRAPL found ([8]; Ia18 6.25 g/ha a.s.): 25
herbicidal activity against ABUTH found ([4]; Ia18 12.5 g/ha a.s.): 55
herbicidal activity against STEME found ([6]; Ia18 12.5 g/ha a.s.): 65
herbicidal activity against STEME found ([6]; Ia18 13 g/ha a.s.): 65
